Measured values as given in doi:10.1101/2022.05.12.491652v1 (biorxiv, 2022).

Tests used:
in vitro = conditions: human, hela cells
PfClpQ = target: T1, PfClpQ (Plasmodium falciparum, UniProt Q8I5B6); test: fluorogenic peptide; type: biochemical
T1 sequence (Q8I5B6 38-207): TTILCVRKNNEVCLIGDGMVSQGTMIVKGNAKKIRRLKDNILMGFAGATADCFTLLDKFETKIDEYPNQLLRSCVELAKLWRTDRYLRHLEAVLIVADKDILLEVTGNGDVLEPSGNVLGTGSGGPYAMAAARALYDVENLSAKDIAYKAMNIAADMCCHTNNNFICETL

Row | SMILES | CC50 (in vitro) | Ki (PfClpQ)
1 | Cn1nc(-c2ccncc2)nc2c(=O)n(C)c(=O)nc1-2 [ICGEB-L1, 1,6-dimethyl-3-(pyridin-4-yl)-1H,5H,6H,7H-pyrimido[5,4-e][1,2,4]triazine-5,7-dione] | 8.4 µM | –
2 | CCn1nc(/C=C/c2ccccc2)[n+]([O-])c2c(=O)n(C)c(=O)nc1-2 [ICGEB-L3, 1-ethyl-6-methyl-5,7-dioxo-3-[(1E)-2-phenylethenyl]-1H,5H,6H,7H-pyrimido[5,4-e][1,2,4]triazin-4-ium-4-olate] | 10 µM | –
3 | CCn1nc(-c2ccc(C(=O)OC)cc2)nc2c(=O)n(C)c(=O)nc1-2 [CN172, methyl 4-{1-ethyl-6-methyl-5,7-dioxopyrimido[5,4-e][1,2,4]triazin-3-yl}benzoate] | 9.58 µM | 0.44 µM
4 | CCn1nc(-c2ccc(Cl)cc2)nc2c(=O)n(C)c(=O)nc1-2 [ICGEB-L2, 3-(4-chlorophenyl)-1-ethyl-6-methyl-1H,5H,6H,7H-pyrimido [5,4-e] [1,2,4] triazine-5,7-dione] | 9.93 µM | –
